According to article PMC12676205, “New Se‐Compounds With Antileishmanial, Antitumor, and Carbonic Anhydrase Inhibitory Properties” (Archiv Der Pharmazie, 2025):

Tests used:
MALME‐3M = experiment: NCI-60 five-dose assay, MALME-3M; type: cell-based; conditions: Homo sapiens, 48 h
Experimental: (§1) All the compounds were selected for further testing since they fulfilled the set NCI one‐dose screening parameters for threshold inhibition. They were tested at five different concentrations (0.01, 0.1, 1, 10, and 100 μM) for 48 h against the same cell line panel and the dose–response curves along with three response parameters (50% growth inhibitory concentration [GI50], the 50% lethal concentration [LC50], and the total growth inhibition [TGI]) were calculated for every cancer cell line. The full reported data and corresponding graphs are compiled in Supporting Information S1. Average values of GI50, TGI, and LC50 values of all the reported selenoesters in all the subpanels are represented in Figure 4.
(§2) All the reported selenoesters (1–6) were submitted to the DTP of NCI. First, they were screened at a single dose (10^−5 M) against a panel of 60 cancer cell lines derived from different tumor types following the methodology available (https://dtp.cancer.gov/discovery_development/nci-60/methodology.htm). As all the compounds satisfied the threshold inhibition criteria established, they were further assessed at five concentrations (0.01, 0.1, 1, 10, and 100 µM) against the same cell panel to obtain their corresponding dose–response curves and three antitumor parameters (GI50, TGI, and LC50) by regression. GraphPad Prism 7.0 Software was used to represent the corresponding graphs.

HOP‐62 = experiment: NCI-60 five-dose assay, HOP-62; type: cell-based; conditions: Homo sapiens, 48 h
Experimental: as §1, §2

THP‐1 cells = experiment: THP-1 cytotoxicity (MTT, PMA-differentiated macrophages); type: cell-based, human; conditions: 48 h, mean ± SD
Experimental: The synthesized compounds were tested for their antileishmanial activity against promastigotes of L. major and L. infantum at four concentrations (1, 10, 50, and 100 µM) for 48 h using the 3‐(4,5‐dimethylthiazol‐2‐yl)‐2,5‐diphenyltetrazolium bromide (MTT) assay. In this evaluation, the activity was expressed in IC50 (concentration inhibiting the parasite growth by 50%). […] The CC50 was defined as the concentration of selenoesters that led to a reduction in the viability of the macrophages, such that only 50% of the cells survived when compared to the control group. This cell line, derived from the blood of a human with acute monocytic leukemia, was chosen as it has been widely reported that it resembles tissue macrophages to various extents as well as supports the infection by numerous Leishmania promastigotes. The selectivity indexes (SIs) were calculated as the ratio between toxicity on macrophages (THP‐1 cells)/antileishmanial activity. The data for standard control drugs (miltefosine and paromomycin) are included for comparison purposes.
THP‐1 cells were seeded at a concentration of 8 × 10^4 cells per well in 96‐well plates and incubated with phorbol 12‐myristate 13‐acetate (PMA) (50 ng/mL) for 72 h (37°C and 5% CO2) to differentiate them into macrophages. After that, the culture medium was removed and the cells were treated with the reported selenoesters at different increasing concentrations ranging from 1 to 200 µM for 48 h at 37°C and 5% of CO2. Macrophages treated with DMSO (1%) were used as controls, and the compounds were dissolved in DMSO at a stock concentration of 10^−2 M. Afterward, the MTT assay was performed. Data were obtained from three independent experiments performed in triplicate. The absorbance was measured at 550 nm using a MultiskanEX photometric plate reader for microplates. The CC50 values were calculated using OriginPro 8.5.1. software by nonlinear curve fitting. SIs were calculated as the ratio of the CC50 values determined for the macrophages and the IC50 values obtained in each Leishmania promastigote. GraphPad Prism 7.0 Software was used to obtain the corresponding graphs.

[1] = tested on: HT29 colon cancer cell line; experiment: NCI-60 one-dose screen, HT29; type: cell-based, human; conditions: 10 µM, 48 h
Experimental: (§3) To explore the potential antiproliferative properties of the newly synthesized derivatives, they were submitted to the National Cancer Institute's (NCI) Developmental Therapeutics Program (DTP) for screening at 10 μM in a panel of approximately 60 human cancer cell lines from different cancer types. The results are reported as the growth percentage (GP), which is the growth of the treated cells with each compound for 48 h compared to the untreated controls (Figure 2). […] The initial screening results are summarized in Figure 2, and the mean GP values of each subpanel are depicted in Figure 3. The full reports are compiled in the Supplementary Section.
as §2

[2] = tested on: OVCAR‐5 ovarian cancer cells; experiment: NCI-60 five-dose assay, OVCAR-5; type: cell-based, human; conditions: 48 h
Experimental: as §1, §2

HL‐60(TB) cells = experiment: NCI-60 one-dose screen, HL-60(TB); type: cell-based, human; conditions: 10 µM, 48 h
Experimental: as §3, §2

O=C(C[Se]C(=O)c1ccccc1)Nc1ccc([N+](=O)[O-])c(C(F)(F)F)c1 [Compound 2, Se‐(2‐((4‐nitro‐3‐(trifluoromethyl)phenyl)amino)‐2‐oxoethyl)benzoselenoate]
GI50 (MALME‐3M): 830 nM
GI50 (HOP‐62): 860 nM

O=C(C[Se]C(=O)c1ccccc1)Nc1cccc(OC(F)(F)F)c1 [Compound 3, Se‐(2‐oxo‐2‐((3‐(trifluoromethoxy)phenyl)amino)ethyl)benzoselenoate]
CC50 (THP‐1 cells): > 200000 nM
behaviour in HT29 [1]: potent cytotoxic activity

O=C(C[Se]C(=O)c1ccco1)Nc1ccc([N+](=O)[O-])c(C(F)(F)F)c1 [Compound 5, Se‐(2‐((4‐nitro‐3‐(trifluoromethyl)phenyl)amino)‐2‐oxoethyl)furan‐2‐carboselenoate]
cytotoxicity against OVCAR‐5 [2]: remarkable cytotoxicity

O=C(C[Se]C(=O)c1ccco1)Nc1cccc(OC(F)(F)F)c1 [Compound 6, Se‐(2‐oxo‐2‐((3‐(trifluoromethoxy)phenyl)amino)ethyl)furan‐2‐carboselenoate]
behaviour in HL‐60(TB) (HL‐60(TB) cells): cytotoxic behavior
